Reference: patent publication US4520026A, “Indolizine derivatives and use as cardiovascular agents” (S. A. Labaz N.V., priority 1982, dated 1985)

Legend:
[1] = tested on: epinephrine-accelerated heart rate (anti-β effect); experiment: Antiadrenergic effect: anti-β effect (reduction of epinephrine-accelerated heart rate); type: in vivo; settings: dog
Protocol: (§1) The purpose of this test was to determine the capacity of the compounds under study to reduce epinephrine-increased blood-pressure (anti-α effect) and epinephrine-accelerated heart rate (anti-β effect) in the dog previously anaesthetized with pentobarbital and atropinized.
(§2) For each dog, the dose of epinephrine was first determined which provoked a reproductible increase by about 100 mm. Hg in the arterial pressure (between 5 and 10 μg/kg). After that, the dose of epinephrine so determined was administered followed by a dose by intravenous route of the compound to be studied. The percentage of reduction of the hypertension provoked by the compound under study in comparison with the hypertension previously obtained (about 100 mm. Hg) was then registered.
(§3) The percentage of reduction of the epinephrine-induced acceleration of heart-rate produced by the compound under study in comparison with the tachycardia previously measured (about 70 beats) was then registered. In both cases, the results were expressed as follows: […]
(§4) + for a <50%-reduction of the increase in pressure or cardiac frequency
(§5) ++ for a ≥50%-reduction of the increase in pressure or cardiac frequency
(§6) +++ for a subtotal reduction of the increase in pressure or cardiac frequency

[2] = tested on: epinephrine-increased blood-pressure (anti-α effect); experiment: Antiadrenergic effect: anti-α effect (reduction of epinephrine-increased blood-pressure); type: in vivo; settings: dog
Protocol: as §1, §2, §3, §4, §5, §6

[3] = Canis lupus familiaris, iv, dose 10 mg/kg i.v.
[4] = Canis lupus familiaris, iv, dose 8.76 mg/kg i.v.
[5] = Canis lupus familiaris, iv, dose 7.5 mg/kg i.v.

SMILES | inhibition in vivo at 10 mg/kg [1, 3] [%] | Anti-α effect ([2]; dose 10 mg/kg i.v.) | Anti-β effect ([1]; dose 10 mg/kg i.v.) | other results
CCCN(CCC)CCCOc1c(Cl)cc(C(=O)c2c(CC)c(Cl)c3ccccn23)cc1Cl [Cl/Cl/Cl/C2H5/n-C3H7/3, 1-Chloro-2-ethyl-3-[4-(3-di-n-propylaminopropyl)-oxy-3,5-dichloro-benzoyl]-indolizine] | > 50 | – | – | inhibition in vivo at 10 mg/kg [2, 3]: > 50%
CCCCN(CCCC)CCCOc1ccc(C(=O)c2c(-c3ccc(F)cc3)c(Br)c3ccccn23)cc1Br [Br/Br/H/drawing 23/n-C4H9/3] | > 50 | +++ | – | –
CCCCN(CCCC)CCCOc1ccc(C(=O)c2c(CC)c(Cl)c3ccccn23)cc1Br [Cl/Br/H/C2H5/n-C4H9/3, 1-Chloro-2-ethyl-3-[4-(3-di-n-butylaminopropyl)-oxy-3-bromo-benzoyl]-indolizine] | – | +++ | +++ | –
CCCCN(CCCC)CCCOc1ccc(C(=O)c2c(CC)c(Br)c3ccccn23)cc1Cl [Br/Cl/H/C2H5/n-C4H9/3, 1-Bromo-2-ethyl-3-[4-(3-di-n-butylaminopropyl)-oxy-3-chloro-benzoyl]-indolizine] | – | +++ | +++ | –
CCCCN(CCCC)CCCOc1ccc(C(=O)c2c(-c3ccccc3)c(Br)c3ccccn23)cc1Cl [Br/Cl/H/drawing 26/n-C4H9/3] | – | – | +++ | inhibition in vivo at 10 mg/kg [2, 3]: > 50%
CCCN(CCC)CCCOc1c(Br)cc(C(=O)c2c(-c3ccccc3)c(Cl)c3ccccn23)cc1Br [Cl/Br/Br/drawing 38/n-C3H7/3, 1-Chloro-2-phenyl-3-[4-(3-di-n-propylaminopropyl)-oxy-3,5-dibromo-benzoyl]-indolizine] | < 50 | – | – | inhibition in vivo at 10 mg/kg [2, 3]: < 50%
CCCCN(CCCC)CCCOc1ccc(C(=O)c2c(CCC)c(C)c3ccccn23)cc1Br [CH3/Br/H/n-C3H7/n-C4H9/3, 1-Methyl-2-n-propyl-3-[4-(3-di-n-butylaminopropyl)-oxy-3-bromo-benzoyl]-indolizine] | – | +++ | +++ | –
CCCCc1cc2ccccn2c1C(=O)c1ccc(OCCCN(CCCC)CCCC)c(C)c1 [H/CH3/H/n-C4H9/n-C4H9/3, 2-n-Butyl-3-[4-(3-di-n-butylaminopropyl)-oxy-3-methyl-benzoyl]-indolizine] | > 50 | – | – | inhibition in vivo at 10 mg/kg [2, 3]: > 50%
CCCCN(CCCC)CCCOc1ccc(C(=O)c2c(-c3ccc(Cl)cc3)c(Cl)c3ccccn23)cc1 [Cl/H/H/drawing 34/n-C4H9/3] | > 50 | +++ | – | –
CCCCN(CCCC)CCCOc1ccc(C(=O)c2c(CC)c(Br)c3ccccn23)cc1 [Br/H/H/C2H5/n-C4H9/3, 1-Bromo-2-ethyl-3-[4-(3-di-n-butylaminopropyl)-oxy-benzoyl]-indolizine] | – | – | – | Anti-β effect ([1]; dose 6 mg/kg i.v.): +++; Anti-α effect ([2]; dose 6 mg/kg i.v.): +++
CCCCN(CCCC)CCCOc1ccc(C(=O)c2c(C)cc3ccccn23)cc1C [H/CH3/H/CH3/n-C4H9/3, 2-Methyl-3-[4-(3-di-n-butylaminopropyl)-oxy-3-methyl-benzoyl]-indolizine] | – | – | – | inhibition in vivo at 8.76 mg/kg [1, 4]: > 50%; inhibition in vivo at 8.76 mg/kg [2, 4]: > 50%
CCCN(CCC)CCCOc1c(Br)cc(C(=O)c2c(-c3ccc(Br)cc3)cc3ccccn23)cc1Br [H/Br/Br/drawing 41/n-C3H7/3] | – | +++ | +++ | –
CCCN(CCC)CCCOc1ccc(C(=O)c2c(-c3ccc(Cl)cc3)c(Br)c3ccccn23)cc1Cl [Br/Cl/H/drawing 30/n-C3H7/3] | > 50 | +++ | – | –
CCCCc1c(C)c2ccccn2c1C(=O)c1ccc(OCCCN(CCCC)CCCC)c(Br)c1 [CH3/Br/H/n-C4H9/n-C4H9/3, 1-Methyl-2-n-butyl-3-[4-(3-di-n-butylaminopropyl)-oxy-3-bromo-benzoyl]-indolizine] | – | – | – | inhibition in vivo at 7.5 mg/kg [1, 5]: > 50%; inhibition in vivo at 7.5 mg/kg [2, 5]: > 50%
CCCCN(CCCC)CCCOc1ccc(C(=O)c2c(CC)cc3ccccn23)cc1OC [H/OCH3/H/C2H5/n-C4H9/3, 2-Ethyl-3-[4-(3-di-n-butylaminopropyl)-oxy-3-methoxy-benzoyl]-indolizine] | > 50 | +++ | – | –
